How the values were obtained:
LNCaP = assay: Cytotoxicity against human LNCaP cells assessed as reduction in cell proliferation by MTT assay; format: functional, cell-based
DU-145 = assay: Cytotoxicity against human hormone nonresponsive DU-145 cells assessed as reduction in cell proliferation by MTT assay; format: functional, cell-based
PC-3 = assay: Cytotoxicity against human hormone nonresponsive PC-3 cells assessed as reduction in cell proliferation by MTT assay; format: functional, cell-based
[1] = Cytotoxicity against human hormone nonresponsive and Castration-resistant 22Rv1 cells assessed as reduction in cell proliferation by MTT assay; format: functional, cell-based, Castration-resistant 22Rv1 cell
[2] = Cytotoxicity against human HFF cells assessed as reduction in cell proliferation by MTT assay; format: toxicity, cell-based

Structure (SMILES)	IC50 (LNCaP) [µM]	IC50 (DU-145) [µM]	IC50 (PC-3) [µM]	IC50 [1] [µM]	IC50 [2] [µM]
CC(=O)OCC1=C(C)C[C@H]([C@@H](C)[C@H]2CC[C@H]3[C@@H]4C[C@H]5O[C@]56[C@@H](O)C=CC(=O)[C@]6(C)[C@H]4CC[C@]23C)OC1=O	1.9	0.8	0.3	1.4	1.9
C=C1C[C@@H]([C@@H](C)[C@H]2CC[C@H]3[C@@H]4C[C@H]5O[C@]56[C@@H](O)C=CC(=O)[C@]6(C)[C@H]4CC[C@]23C)OC(=O)[C@@]12CCC1=C(C[C@@H]([C@@H](C)[C@H]3CC[C@H]4[C@@H]5C[C@H]6O[C@]67[C@@H](O)C=CC(=O)[C@]7(C)[C@H]5CC[C@]34C)OC1=O)C2	0.9	1	0.2	1.1	0.6
C=C1C(=O)O[C@@H]([C@@H](C)[C@H]2CC[C@H]3[C@@H]4C[C@H]5O[C@]56[C@@H](OC(C)=O)C=CC(=O)[C@]6(C)[C@H]4CC[C@]23C)C=C1C	1.6	2.5	0.4	1.5	2
C=C1C[C@@H]([C@@H](C)[C@H]2CC[C@H]3[C@@H]4C[C@H]5O[C@]56[C@@H](OC(C)=O)C=CC(=O)[C@]6(C)[C@H]4CC[C@]23C)OC(=O)[C@@]12CCC1=C(C[C@@H]([C@@H](C)[C@H]3CC[C@H]4[C@@H]5C[C@H]6O[C@]67[C@@H](OC(C)=O)C=CC(=O)[C@]7(C)[C@H]5CC[C@]34C)OC1=O)C2	> 5	3.7	1	2.6	2.5
C=C1C[C@@H]([C@@H](C)[C@H]2CC[C@H]3[C@@H]4C[C@H]5O[C@]56[C@@H](OC(=O)c5ccc([N+](=O)[O-])cc5)C=CC(=O)[C@]6(C)[C@H]4CC[C@]23C)OC(=O)[C@@]12CCC1=C(C[C@@H]([C@@H](C)[C@H]3CC[C@H]4[C@@H]5C[C@H]6O[C@]67[C@@H](OC(=O)c6ccc([N+](=O)[O-])cc6)C=CC(=O)[C@]7(C)[C@H]5CC[C@]34C)OC1=O)C2	2.3	1.1	0.2	1.1	0.5
C=C1C(=O)O[C@@H]([C@@H](C)[C@H]2CC[C@H]3[C@@H]4C[C@H]5O[C@]56[C@@H](O)C=CC(=O)[C@]6(C)[C@H]4CC[C@]23C)C=C1C	> 5	> 5	2.2	> 5	> 5
COc1cccc2c1C(=O)c1c(O)c3c(c(O)c1C2=O)C[C@@](O)(C(=O)CO)C[C@@H]3O[C@H]1C[C@H](N)[C@H](O)[C@H](C)O1 [DOXORUBICIN]	0.1	0.1	0.6	0.04	1.4

— ChEMBL document CHEMBL5344447, “A Homodimer of Withaferin A Formed by Base-Promoted Elimination of Acetic Acid from 27-O-Acetylwithaferin A Followed by a Diels-Alder Reaction” (J Nat Prod, 2024)
